Test results published in publication PMC6994260 (Nature chemistry, 2019).

Legend:
[1] = biological target: T1, demethylmenaquinone methyltransferase (MenG) (Staphylococcus aureus, UniProt P67062); experiment: MenG methylation assay in lysate; type: biochemical; conditions: inhibitor; SAM and DMK-2 as substrates, 80 min
T1 sequence (P67062 1-241): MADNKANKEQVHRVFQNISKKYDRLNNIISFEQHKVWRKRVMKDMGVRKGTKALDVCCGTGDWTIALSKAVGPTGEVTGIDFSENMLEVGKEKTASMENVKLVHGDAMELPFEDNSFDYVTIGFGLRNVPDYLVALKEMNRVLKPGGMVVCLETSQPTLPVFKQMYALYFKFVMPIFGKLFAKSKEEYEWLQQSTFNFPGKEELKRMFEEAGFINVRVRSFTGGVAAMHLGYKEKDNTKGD

[2] = biological target: T2, signal peptidase IB (SpsB) (Staphylococcus aureus, UniProt Q5HHB9); experiment: FRET-peptide cleavage by endogenous SpsB in S. aureus membranes; type: biochemical; conditions: activator; 50 uM compound, 0.2 mg/mL total membrane protein
T2 sequence (Q5HHB9 1-191): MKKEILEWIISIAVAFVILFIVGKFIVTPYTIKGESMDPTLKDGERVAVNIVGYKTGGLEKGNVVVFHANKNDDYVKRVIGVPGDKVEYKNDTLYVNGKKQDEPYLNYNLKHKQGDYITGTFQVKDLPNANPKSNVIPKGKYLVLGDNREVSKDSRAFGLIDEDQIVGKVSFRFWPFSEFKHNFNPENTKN

[3] = biological target: T1, demethylmenaquinone methyltransferase (MenG); experiment: LC-MS of menaquinone-2 formed in lysate; type: biochemical; conditions: S-adenosyl-L-methionine as methyl donor, 80 min
[4] = biological target: T1, demethylmenaquinone methyltransferase (MenG); conditions: labelled compound; DMK-2 as acceptor, 80 min

In the case of `O=C(Nc1ccc2c(c1)OC(F)(F)O2)Nc1ccc(Cl)c(C(F)(F)F)c1` [PK150], the “% MenG activity of DMSO control” value [1] is reported as “Menaquinone-2 synthesis was enhanced in MenG-overexpressing cells and again significantly inhibited by PK150” and the “SpsB activity (normalized) at 50 μM” value [2] is reported as 2.54 ± 0.39 fold of DMSO control.
In the case of `CNC(=O)c1cc(Oc2ccc(NC(=O)Nc3ccc(Cl)c(C(F)(F)F)c3)cc2)ccn1` [SFN, sorafenib], the “% MenG activity of DMSO control” value [1] is reported as “SFN caused a weaker inhibition in these assays” and the “SpsB activity (normalized) at 50 μM” value [2] is reported as 1.64 ± 0.12 fold of DMSO control.
For `CC(C)=CCC/C(C)=C/CC1=CC(=O)c2ccccc2C1=O` [DMK-2, demethylmenaquinone-2], the “LC-MS of menaquinone-2 formed in lysate” value [3] was “methylation of non-naturally occurring demethylmenaquinone-2 by lysates of MenG-overexpressing and wild type S. aureus”.
In the case of `O=C(Nc1ccc2c(c1)OCO2)Nc1ccc(Cl)c(C(F)(F)F)c1` [1-159], the “SpsB activity (normalized) at 50 μM” value [2] is reported as 1.40 ± 0.01 fold of DMSO control.
In the case of `O=C(Nc1ccc(Cl)c(C(F)(F)F)c1)Nc1cccc2c1OC(F)(F)O2` [1-164], the “SpsB activity (normalized) at 50 μM” value [2] is reported as 1.42 ± 0.08 fold of DMSO control.
`C[S+](CC[C@H](N)C(=O)O)C[C@H]1O[C@@H](n2cnc3c(N)ncnc32)[C@H](O)[C@@H]1O` (stereo partly drawn) [SAM, S-adenosyl-L-methionine] was tested, and the “[3H]methyl transfer to DMK-2, liquid scintillation counting” value [4] was “radiolabelled methyl group of cofactor S-adenosyl-L-methionine”.
